Legend:
Erk1/2 = experiment: TPA-induced Erk phosphorylation in mouse skin, western blot; format: in vivo; conditions: topical for 2 h after TPA
Procedure: Shaven abdominal skins of female C57BL/6JNarl mice were not treated or topically treated with vehicle (acetone, 200 μl/site) or TPA (10 nmol in 200 μl acetone/site) at indicated time points or treated first with TPA for 10 min, then with the indicated concentrations of BrD1 at the indicated time points. Abdominal skin samples were collected, homogenated and lysed to prepare total proteins. Protein samples were subsequently resolved by SDS-PAGE using a gradient gel. The resolved proteins were transferred to a PVDF Immobilon-P membrane (Millipore, Bedford, Calif.), and the membrane was blocked with 5% non-fat dry milk in PBST buffer (phosphate-buffered saline (PBS) containing 0.1% Tween 20) for 60 minutes at room temperature. The membranes were incubated overnight at 4° C. with commercially available antibodies (1:1000 dilutions). Loading of equal amounts of protein was assessed using mouse β-actin. The blots were rinsed three times with PBST buffer for 5 minutes. Washed blots were incubated with HRP-conjugated secondary antibody (1:100,000 dilution), then washed again three times with PBST buffer. […] Quantification of bands was performed using Image J software.
We therefore evaluated whether BrD1 could interfere with TPA-induced activation of Akt and Erk in inflamed skin. […] We thus determined the phosphorylation level of Akt, Erk, NF-κB and IκBα in skins subjected to different treatments. […]

[1] = test system: abdominal skins of female C57BL/6 mice; experiment: TPA-induced vascular permeability assay (Evans blue extravasation); format: in vivo, mouse; conditions: Evans blue OD 620 nm
Procedure: TPA-induced vascular permeability assay was modified and performed as previously described (Thurston G, Suri C, Smith K, McClain J, Sato T N, Yancopoulos G D, McDonald D M. Science 1999, 286:2511-2514). Shaved abdominal skins of female C57BL/6JNarl mice were topically treated with vehicle (acetone, 200 μl/site) or TPA (10 nmol in 200 μl acetone/site) for 6 h or treated with TPA for 10 min and subsequently treated for 6 h with the indicated concentrations of BrD1. Abdominal skins of untreated mice were used as the control group. One percent Evans blue dye (100 μl) was injected into mouse tail veins. After 20 min, anatomical appearances of mouse abdomens from the various treatments were photographically recorded. Abdominal skins representative of each test group were removed, turned over and photographed. Evans blue dye extravasated into the skins was extracted by incubation of the skin samples in 99% N,N-dimethyl-formamide overnight at 60° C. and optical density was measured at 620 nm.
Acute inflammatory reactions are known to include changes in vascular permeability, edema and cellular infiltration (Rao T S, Currie J L, Shaffer A F, Isakson P C. Inflammation 1993, 17:723-741). In order to evaluate the anti-inflammatory effect of BrD1 on TPA-induced dermatitis in a murine model, we initially evaluated the possible inhibitory effect of BrD1 on TPA-induced vascular permeability. […]

iNOS = experiment: TPA-induced iNOS expression in mouse skin, immunohistochemical staining; format: in vivo; conditions: topical for 6 h after TPA, anti-iNOS immunostaining
Procedure: Mice were treated or not treated topically on their shaven abdomens with acetone (vehicle only) or TPA (10 nmol in 200 μl acetone/site) for 6 h or treated first with TPA for 10 min, then with the indicated concentrations of BrD1 for 6 h. Mice were killed by cervical dislocation. Abdominal skin tissues were collected, fixed with formalin buffer and embedded in paraffin. Tissue sections ([…]) were cut and laid onto silanized glass slides and deparaffinized three times with xylene for 5 min each prior to rehydration using a graded alcohol bath. For hematoxyline and eosin staining, the sections were stained with hematoxyline and eosin staining. For immunohistochemical staining, the deparaffinized sections were boiled in 10 mM citrate buffer (pH 6.0) for 10 min for antigen retrieval and rinsed with PBS containing 0.05% Tween-20 buffer for 5 min. The sections were treated with 3% hydrogen peroxide in methanol for 15 min to decrease non-specific binding. They were subsequently washed with blocking solution (PBS containing 1% BSA) for 30 min and then PBST twice for 5 min. All slides were incubated first with 2% goat serum in blocking solution for 30 min, then with a 1:200 dilution of polyclonal iNOS antibody (eBioscience, San Diego, Calif.) at room temperature for 1 h. […] Subsequently, peroxidase-binding sites were determined by staining with 3,3′-diaminobenzidine tetrahydrochloride (Dako). […]

## CCCC(=O)O[C@H]1C/C(C)=C\[C@@H]2OC(=O)[C@]3(C)O[C@]23[C@@H](OC(C)=O)[C@H]2[C@@H](C)[C@@H](O)C[C@H](OC(C)=O)[C@]2(C)[C@H]1OC(C)=O [BrD1, excavatolide B]
Erk1/2
  TPA-induced Erk phosphorylation: inhibit TPA-induced Erk phosphorylation only slightly
[1]; 0.5 mg/site topical for 6 h after TPA (10 nmol) 10 min
  level of inhibition of TPA-induced vascular permeability: approximately 58%
[1]; 1 mg/site topical for 6 h after TPA (10 nmol) 10 min
  level of inhibition of TPA-induced vascular permeability: ~77%
iNOS
  TPA-induced iNOS expression: markedly reduced the TPA-induced iNOS expression in the epidermal and dermal layers
iNOS; listed as excavatolide B
  TPA-induced iNOS expression: markedly reduces the TPA-induced iNOS expression in the epidermal and dermal layers

From US8530513B1, “Pharmaceutical uses of diterpene excavatolide B from a coral or an analogue thereof” (National Sun Yat-Sen University, priority 2012, dated 2013)
